Source: paper doi:10.1101/404459v1 (biorxiv, 2018)

T1: PbCLK3 (Plasmodium berghei, UniProt A0A509AKE9)
T1 sequence (A0A509AKE9 1-706): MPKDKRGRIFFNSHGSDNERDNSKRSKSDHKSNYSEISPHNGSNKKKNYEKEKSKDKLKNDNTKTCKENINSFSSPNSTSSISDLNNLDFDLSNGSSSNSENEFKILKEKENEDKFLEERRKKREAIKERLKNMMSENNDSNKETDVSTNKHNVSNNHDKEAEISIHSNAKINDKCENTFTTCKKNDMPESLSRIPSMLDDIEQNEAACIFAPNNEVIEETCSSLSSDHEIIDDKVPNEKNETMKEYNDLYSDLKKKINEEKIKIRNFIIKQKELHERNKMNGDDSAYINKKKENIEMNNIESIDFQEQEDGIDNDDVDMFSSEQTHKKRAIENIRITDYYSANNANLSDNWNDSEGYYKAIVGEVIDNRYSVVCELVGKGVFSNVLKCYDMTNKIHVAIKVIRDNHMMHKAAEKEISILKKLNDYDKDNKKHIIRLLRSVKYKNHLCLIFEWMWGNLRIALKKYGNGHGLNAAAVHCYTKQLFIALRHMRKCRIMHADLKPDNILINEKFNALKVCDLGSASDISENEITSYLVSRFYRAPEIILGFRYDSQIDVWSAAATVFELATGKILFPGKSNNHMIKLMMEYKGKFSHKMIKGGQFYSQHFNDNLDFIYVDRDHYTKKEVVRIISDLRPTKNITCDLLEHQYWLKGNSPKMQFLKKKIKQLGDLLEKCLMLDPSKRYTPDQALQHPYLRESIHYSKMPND


Legend:
PbCLK3 = target: T1, PbCLK3; test: TR-FRET kinase assay; assay type: biochemical; conditions: recombinant kinase
PvCLK3 = test: TR-FRET kinase assay; assay type: biochemical, Plasmodium vivax; conditions: recombinant kinase
purified protein = substrate: Nc1ncnc2c1ncn2[C@@H]1O[C@H](COP(=O)(O)OP(=O)(O)OP(=O)(O)O)[C@@H](O)[C@H]1O; test: purified protein; conditions: co-substrate ULight-CREBtide; pH […]; […] MgCl2; room temperature

Row | pIC50 (PbCLK3) | pIC50 (PvCLK3) | Molecule | Km (purified protein) [µM]
1 | 7.47 ± 0.12 | 7.86 ± 0.10 | CCN(CC)Cc1ccc(OC)c(-c2cc3c(-c4ccc(C(=O)O)c(C(C)C)c4)ccnc3[nH]2)c1 [TCMDC-135051] | –
2 | – | – | PfCLK1 (Plasmodium falciparum 3D7) (protein) DDEIVHFSWKKGMLLNNAFLVIRKMGDGTFGRVLLCQHIDNKKYYAVKVVRNIKKYTRSAKIEADILKKIQNDDINNNNIVKYHGKFMYYDHMCLIFEPLGPSLYEIITRNNYNGFHIEDIKLYCIEILKALNYLRKMSLTHTDLKPENILLDDPYFEKSLITVRRVTDGKKIQIYRTKSTGIKLIDFGCATFKSDYHGSIINTRQYRAPEVILNLGWDVSSDMWSFGCVLAELYTGSLLFRTHEHMEHLAMMESIIQPIPKNMLYEATKTNGSKYVNKDELKLAWPENASSINSIKHVKKCLPLYKIIKHELFCDFLYSILQIDPTLRPSPAELLKHKFLE | 30
